Data as given in PubChem BioAssay AID248 (DTP/NCI, 2004).
Toxic doses and inconclusive results are not listed. No stated cut-off is given here; in the data, active means T/C of 150% or more; inactive means T/C below 125%.

Tested on: L1210 leukemia ip in BDF1 mice, survival T/C
Assay: NCI In Vivo Anticancer Drug Screen. Data for tumor model L1210 Leukemia (intraperitoneal) in B6D2F1 (BDF1) mice
Details: endpoint: mean survival time, higher = longer survival
Procedure, shortened: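 Mice bearing the transplanted tumor received compound or vehicle. Survival of the treated group was divided by that of the vehicle-treated control group to give the ratio.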

[1] = dose: 50.0 mg/kg/injection, schedule: Q01DX009 (ip), vehicle: Klucel (hydroxypropylcellulose) (HPC)
[2] = dose: 100.0 mg/kg/injection, schedule: Q01DX009 (ip), vehicle: Klucel (hydroxypropylcellulose) (HPC)
[3] = dose: 100.0 mg/kg/injection, schedule: Q04DX002 (ip), vehicle: Klucel (hydroxypropylcellulose) (HPC)
[4] = dose: 200.0 mg/kg/injection, schedule: Q04DX002 (ip), vehicle: Klucel (hydroxypropylcellulose) (HPC)
[5] = dose: 400.0 mg/kg/injection, schedule: Q04DX002 (ip), vehicle: Klucel (hydroxypropylcellulose) (HPC)
[6] = dose: 100.0 mg/kg/injection, schedule: Q01DX009 (ip), vehicle: saline
[7] = dose: 100.0 mg/kg/injection, schedule: Q04DX003 (ip), vehicle: saline
[8] = dose: 200.0 mg/kg/injection, schedule: Q01DX009 (ip), vehicle: saline
[9] = dose: 200.0 mg/kg/injection, schedule: Q04DX003 (ip), vehicle: saline
[10] = dose: 400.0 mg/kg/injection, schedule: Q01DX009 (ip), vehicle: saline
[11] = dose: 400.0 mg/kg/injection, schedule: Q04DX003 (ip), vehicle: saline
[12] = dose: 50.0 mg/kg/injection, schedule: Q01DX001 (ip), vehicle: saline
[13] = dose: 100.0 mg/kg/injection, schedule: Q01DX001 (ip), vehicle: saline
[14] = dose: 200.0 mg/kg/injection, schedule: Q01DX001 (ip), vehicle: saline
[15] = dose: 400.0 mg/kg/injection, schedule: Q01DX001 (ip), vehicle: saline
[16] = dose: 100.0 mg/kg/injection, schedule: Q01DX009 (ip), vehicle: saline with Tween-80
[17] = dose: 200.0 mg/kg/injection, schedule: Q01DX009 (ip), vehicle: saline with Tween-80
[18] = dose: 400.0 mg/kg/injection, schedule: Q01DX009 (ip), vehicle: saline with Tween-80

Measured: T/C

CC(C)(O)C#Cc1ccccc1
inactive: [1] 99 % of control | dose: 100.0 mg/kg/injection, schedule: Q01DX005 (ip), vehicle: Klucel (hydroxypropylcellulose) (HPC) 105 % of control | [2] 99 % of control | [3] 95 % of control | dose: 200.0 mg/kg/injection, schedule: Q01DX005 (ip), vehicle: Klucel (hydroxypropylcellulose) (HPC) 97 % of control | dose: 200.0 mg/kg/injection, schedule: Q01DX009 (ip), vehicle: Klucel (hydroxypropylcellulose) (HPC) 92 % of control | [4] 113 % of control | [5] 102 % of control

N#CCCNCCC#N
inactive: [6] 103 % of control | [7] 102 % of control | [8] 97 % of control | [9] 100 % of control | [10] 104 % of control | [11] 96 % of control

CCOC(=O)C(C#N)c1ccccc1 (stereo unspecified)
inactive: [12] 96 % of control | [13] 100 % of control | [14] 100 % of control

O=[N+]([O-])c1ccc(O)c(/C=N/N2CCN(/N=C/c3cc([N+](=O)[O-])ccc3O)CC2)c1
inactive: [13] 91 % of control | [14] 97 % of control | [15] 97 % of control

COc1ccccc1/C(C)=N\NC(N)=O
inactive: [13] 97 % of control | [14] 93 % of control | [15] 103 % of control

O=c1scc(-c2ccccc2)s1
inactive: [3] 113 % of control | [4] 88 % of control | [5] 106 % of control

C/C(=C\COc1ccc(C)cc1)CC/C=C(\C)CCC1OC1(C)C (stereo unspecified)
inactive: dose: 50.0 mg/kg/injection, schedule: Q04DX002 (ip), vehicle: saline with Tween-80 108 % of control | dose: 100.0 mg/kg/injection, schedule: Q04DX002 (ip), vehicle: saline with Tween-80 108 % of control | dose: 200.0 mg/kg/injection, schedule: Q04DX002 (ip), vehicle: saline with Tween-80 92 % of control

Cc1ccc(Nc2n[nH]c(=S)s2)cc1F
inactive: dose: 75.0 mg/kg/injection, schedule: Q01DX001 (ip), vehicle: other 100 % of control | dose: 150.0 mg/kg/injection, schedule: Q01DX001 (ip), vehicle: other 100 % of control | dose: 300.0 mg/kg/injection, schedule: Q01DX001 (ip), vehicle: other 100 % of control

Clc1ccc2c(c1)ncn1nnnc21
inactive: dose: 50.0 mg/kg/injection, schedule: Q04DX003 (ip), vehicle: saline 95 % of control | [7] 104 % of control | [9] 93 % of control

COc1cc(/C=C(/C#N)[N+](=O)[O-])ccc1O
inactive: dose: 3.12 mg/kg/injection, schedule: Q01DX009 (ip), vehicle: DMSO 93 % of control | dose: 6.25 mg/kg/injection, schedule: Q01DX009 (ip), vehicle: DMSO 91 % of control | dose: 12.5 mg/kg/injection, schedule: Q01DX009 (ip), vehicle: DMSO 94 % of control | dose: 12.5 mg/kg/injection, schedule: Q04DX003 (ip), vehicle: DMSO 102 % of control | dose: 25.0 mg/kg/injection, schedule: Q01DX009 (ip), vehicle: DMSO 89 % of control | dose: 25.0 mg/kg/injection, schedule: Q04DX003 (ip), vehicle: DMSO 114 % of control | dose: 50.0 mg/kg/injection, schedule: Q01DX009 (ip), vehicle: DMSO 93 % of control | dose: 50.0 mg/kg/injection, schedule: Q04DX003 (ip), vehicle: DMSO 101 % of control

Nc1c(Cl)cc(S(=O)(=O)O)cc1Br
inactive: [12] 101 % of control | [13] 103 % of control | [14] 101 % of control | [15] 101 % of control

COc1ccc([N+](=O)[O-])cc1C(F)(F)F
inactive: [16] 96 % of control | [17] 97 % of control | [18] 93 % of control

Cc1c(F)c(I)c(Br)c(C)c1[N+](=O)[O-]
inactive: dose: 75.0 mg/kg/injection, schedule: Q04DX003 (ip), vehicle: Klucel (hydroxypropylcellulose) (HPC) 104 % of control | dose: 150.0 mg/kg/injection, schedule: Q04DX003 (ip), vehicle: Klucel (hydroxypropylcellulose) (HPC) 88 % of control | dose: 300.0 mg/kg/injection, schedule: Q04DX003 (ip), vehicle: Klucel (hydroxypropylcellulose) (HPC) 93 % of control

O=[N+]([O-])c1cccc(C2=NNC(c3cccc([N+](=O)[O-])c3)=NN2)c1
inactive: dose: 175.0 mg/kg/injection, schedule: Q01DX001 (ip), vehicle: saline 87 % of control | dose: 265.0 mg/kg/injection, schedule: Q01DX001 (ip), vehicle: saline 92 % of control | [15] 89 % of control | dose: 600.0 mg/kg/injection, schedule: Q01DX001 (ip), vehicle: saline 89 % of control

Cc1ncc(CO)c(C2NOCc3nscc32)c1O (stereo unspecified)
inactive: dose: 3.12 mg/kg/injection, schedule: Q01DX009 (ip), vehicle: Klucel (hydroxypropylcellulose) (HPC) 94 % of control | dose: 3.12 mg/kg/injection, schedule: Q01DX009 (ip), vehicle: other 98 % of control | dose: 6.25 mg/kg/injection, schedule: Q01DX009 (ip), vehicle: other 100 % of control | dose: 12.5 mg/kg/injection, schedule: Q01DX009 (ip), vehicle: Klucel (hydroxypropylcellulose) (HPC) 89 % of control | dose: 12.5 mg/kg/injection, schedule: Q01DX009 (ip), vehicle: other 107 % of control | dose: 12.5 mg/kg/injection, schedule: Q04DX003 (ip), vehicle: Klucel (hydroxypropylcellulose) (HPC) 92 % of control

O=C(/C=C\c1ccc(O)c(O)c1)OC1C(O)CC(OC(=O)/C=C/c2ccc(O)c(O)c2)(C(=O)O)CC1O (stereo unspecified)
inactive: [6] 105 % of control | [8] 91 % of control | [10] 94 % of control

Cc1ccc(NC(=S)NN)cc1C
inactive: [1] 94 % of control | [2] 100 % of control | dose: 100.0 mg/kg/injection, schedule: Q04DX003 (ip), vehicle: Klucel (hydroxypropylcellulose) (HPC) 94 % of control | dose: 200.0 mg/kg/injection, schedule: Q04DX003 (ip), vehicle: Klucel (hydroxypropylcellulose) (HPC) 97 % of control

Cn1c(O)c(C=N)c(=O)[nH]c1=O
inactive: [6] 86 % of control | [7] 90 % of control | [8] 88 % of control | [9] 92 % of control | [10] 86 % of control | [11] 90 % of control

O=C1CC(Cl)C(=O)N1c1ccccc1 (stereo unspecified)
inactive: dose: 75.0 mg/kg/injection, schedule: Q01DX009 (ip), vehicle: saline with Tween-80 112 % of control | dose: 75.0 mg/kg/injection, schedule: Q04DX003 (ip), vehicle: saline with Tween-80 96 % of control | dose: 150.0 mg/kg/injection, schedule: Q01DX009 (ip), vehicle: saline with Tween-80 102 % of control | dose: 150.0 mg/kg/injection, schedule: Q04DX003 (ip), vehicle: saline with Tween-80 102 % of control | dose: 300.0 mg/kg/injection, schedule: Q04DX003 (ip), vehicle: saline with Tween-80 101 % of control

COc1ccccc1-n1c(O)c(N=Nc2ccc(Br)cc2)c(=O)n(-c2ccccc2OC)c1=S
inactive: dose: 100.0 mg/kg/injection, schedule: Q01DX001 (ip), vehicle: Klucel (hydroxypropylcellulose) (HPC) 103 % of control | dose: 200.0 mg/kg/injection, schedule: Q01DX001 (ip), vehicle: Klucel (hydroxypropylcellulose) (HPC) 105 % of control | dose: 400.0 mg/kg/injection, schedule: Q01DX001 (ip), vehicle: Klucel (hydroxypropylcellulose) (HPC) 92 % of control

O=C(O)C(S)C(S)C(=O)O.[As] (stereo unspecified)
inactive: dose: 12.5 mg/kg/injection, schedule: Q01DX009 (ip), vehicle: saline 96 % of control | dose: 25.0 mg/kg/injection, schedule: Q01DX009 (ip), vehicle: saline 104 % of control | dose: 50.0 mg/kg/injection, schedule: Q01DX009 (ip), vehicle: saline 98 % of control

CC(=O)OC(C(=O)N(c1ccccc1)c1ccccc1)c1ccccc1 (stereo unspecified)
inactive: [16] 98 % of control | [17] 95 % of control | [18] 93 % of control

COc1ccc(NC2=NCCS2)cc1
inactive: dose: 50.0 mg/kg/injection, schedule: Q01DX009 (ip), vehicle: saline with Tween-80 95 % of control | [16] 95 % of control | [17] 96 % of control

NCCCOC12CC3CC(CC(C3)C1)C2
inactive: dose: 10.0 mg/kg/injection, schedule: Q04DX002 (ip), vehicle: saline 106 % of control | dose: 20.0 mg/kg/injection, schedule: Q04DX002 (ip), vehicle: saline 117 % of control | dose: 40.0 mg/kg/injection, schedule: Q04DX002 (ip), vehicle: saline 102 % of control
